Assays:
Details in all cases: exposure time: 72 h
E57 [1] = patient-derived glioblastoma stem cells of mesenchymal subtype; test: phenotypic distance (Euclidean, principal components) from DMSO controls (arbitrary units); higher = stronger morphological change
E28 [2] = patient-derived glioblastoma stem cells of classical subtype; test: as above
E34 [3] = patient-derived glioblastoma stem cells of proneural subtype; test: as above
E13 [4] = patient-derived glioblastoma stem cells of classical subtype; test: as above
FT3469 [5] = normal neural stem cell line; test: as above
E21 [6] = patient-derived glioblastoma stem cells of mesenchymal subtype; test: as above
E31 [7] = patient-derived glioblastoma stem cells of proneural subtype; test: as above
E57 [8] = test: surviving fraction (nuclei count normalised to DMSO); higher = more cells surviving (less toxic)
E28 [9] = test: as above
E34 [10] = test: as above
E13 [11] = test: as above
FT3469 [12] = test: as above
E21 [13] = test: as above
E31 [14] = test: as above
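Throughout, for phenotypic distance (Euclidean, principal components) from DMSO controls: cell Painting imaging in 384-well plates, CellProfiler features reduced to at least 20 principal components, Euclidean distance versus same-plate DMSO vehicle wells (0.1% v/v), median over six images per well.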
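Throughout, for surviving fraction (nuclei count normalised to DMSO): nuclei counted by high-content imaging of Hoechst-stained cells in laminin-coated 384-well plates, relative to 0.1% DMSO vehicle wells, with staurosporine as cell-death control.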

Work on `Cc1nc2ccccn2c(=O)c1CCN1CCC(C(=O)c2ccc(F)cc2)CC1` [Pirenperone] yielded a phenotypic distance (E57 [1]; 4.1 nM) of 0.572, a phenotypic distance (E57 [1]; 12.3 nM) of 0.766 and a phenotypic distance (E57 [1]; 37 nM) of 2.84. It also gave a phenotypic distance (E57 [1]; 111.1 nM) of 0.668, a phenotypic distance (E57 [1]; 333.3 nM) of 0.553 and a phenotypic distance (E57 [1]; 1000 nM) of 0.431. The phenotypic distance (E57 [1]; 3000 nM) was 1.17, the phenotypic distance (E28 [2]; 4.1 nM) was 0.892 and the phenotypic distance (E28 [2]; 12.3 nM) was 0.572. For the same compound, the phenotypic distance (E28 [2]; 37 nM) was 0.636, the phenotypic distance (E28 [2]; 111.1 nM) was 0.966 and the phenotypic distance (E28 [2]; 333.3 nM) was 0.52. The phenotypic distance (E28 [2]; 1000 nM) was 0.489, the phenotypic distance (E28 [2]; 3000 nM) was 0.806 and the phenotypic distance (E34 [3]; 4.1 nM) was 0.796. For the same compound, the phenotypic distance (E34 [3]; 12.3 nM) was 0.78, the phenotypic distance (E34 [3]; 37 nM) was 0.668 and the phenotypic distance (E34 [3]; 111.1 nM) was 0.579. It also gave a phenotypic distance (E34 [3]; 333.3 nM) of 0.636, a phenotypic distance (E34 [3]; 1000 nM) of 0.719 and a phenotypic distance (E34 [3]; 3000 nM) of 0.659. The phenotypic distance (E13 [4]; 4.1 nM) was 0.486, the phenotypic distance (E13 [4]; 12.3 nM) was 0.42 and the phenotypic distance (E13 [4]; 37 nM) was 0.709. It also gave a phenotypic distance (E13 [4]; 111.1 nM) of 0.86, a phenotypic distance (E13 [4]; 333.3 nM) of 0.944 and a phenotypic distance (E13 [4]; 1000 nM) of 0.709. For the same compound, the phenotypic distance (E13 [4]; 3000 nM) was 2.42, the phenotypic distance (FT3469 [5]; 4.1 nM) was 0.618 and the phenotypic distance (FT3469 [5]; 12.3 nM) was 0.837. For the same compound, the phenotypic distance (FT3469 [5]; 37 nM) was 0.619, the phenotypic distance (FT3469 [5]; 111.1 nM) was 0.898 and the phenotypic distance (FT3469 [5]; 333.3 nM) was 0.764. The phenotypic distance (FT3469 [5]; 1000 nM) was 0.995, the phenotypic distance (FT3469 [5]; 3000 nM) was 1.03 and the phenotypic distance (E21 [6]; 4.1 nM) was 1. The phenotypic distance (E21 [6]; 12.3 nM) was 0.656, the phenotypic distance (E21 [6]; 37 nM) was 0.874 and the phenotypic distance (E21 [6]; 111.1 nM) was 0.825. For the same compound, the phenotypic distance (E21 [6]; 333.3 nM) was 0.769, the phenotypic distance (E21 [6]; 1000 nM) was 0.729 and the phenotypic distance (E21 [6]; 3000 nM) was 0.884. For the same compound, the phenotypic distance (E31 [7]; 4.1 nM) was 0.618, the phenotypic distance (E31 [7]; 12.3 nM) was 0.402 and the phenotypic distance (E31 [7]; 37 nM) was 0.608. For the same compound, the phenotypic distance (E31 [7]; 111.1 nM) was 0.551, the phenotypic distance (E31 [7]; 333.3 nM) was 0.266 and the phenotypic distance (E31 [7]; 1000 nM) was 0.44. The phenotypic distance (E31 [7]; 3000 nM) was 0.761, the surviving fraction (E57 [8]; 4.1 nM) was 1.07 and the surviving fraction (E57 [8]; 12.3 nM) was 1.08. The surviving fraction (E57 [8]; 37 nM) was 1.08, the surviving fraction (E57 [8]; 111.1 nM) was 1.02 and the surviving fraction (E57 [8]; 333.3 nM) was 1.03. It also gave a surviving fraction (E57 [8]; 1000 nM) of 1.03, a surviving fraction (E57 [8]; 3000 nM) of 0.881 and a surviving fraction (E28 [9]; 4.1 nM) of 1.05. The surviving fraction (E28 [9]; 12.3 nM) was 0.977, the surviving fraction (E28 [9]; 37 nM) was 1.16 and the surviving fraction (E28 [9]; 111.1 nM) was 0.995. The surviving fraction (E28 [9]; 333.3 nM) was 1.08, the surviving fraction (E28 [9]; 1000 nM) was 1.07 and the surviving fraction (E28 [9]; 3000 nM) was 0.988. It also gave a surviving fraction (E34 [10]; 4.1 nM) of 1.22, a surviving fraction (E34 [10]; 12.3 nM) of 1.22 and a surviving fraction (E34 [10]; 37 nM) of 1.06. The surviving fraction (E34 [10]; 111.1 nM) was 0.912, the surviving fraction (E34 [10]; 333.3 nM) was 0.91 and the surviving fraction (E34 [10]; 1000 nM) was 1.01. For the same compound, the surviving fraction (E34 [10]; 3000 nM) was 1.15, the surviving fraction (E13 [11]; 4.1 nM) was 0.987 and the surviving fraction (E13 [11]; 12.3 nM) was 1.07. The surviving fraction (E13 [11]; 37 nM) was 1.13, the surviving fraction (E13 [11]; 111.1 nM) was 1.14 and the surviving fraction (E13 [11]; 333.3 nM) was 1.06. For the same compound, the surviving fraction (E13 [11]; 1000 nM) was 1.02, the surviving fraction (E13 [11]; 3000 nM) was 1.02 and the surviving fraction (FT3469 [12]; 4.1 nM) was 0.92. It also gave a surviving fraction (FT3469 [12]; 12.3 nM) of 0.976, a surviving fraction (FT3469 [12]; 37 nM) of 1.17 and a surviving fraction (FT3469 [12]; 111.1 nM) of 1.11. For the same compound, the surviving fraction (FT3469 [12]; 333.3 nM) was 1.12, the surviving fraction (FT3469 [12]; 1000 nM) was 1.05 and the surviving fraction (FT3469 [12]; 3000 nM) was 1.19. For the same compound, the surviving fraction (E21 [13]; 4.1 nM) was 1.08, the surviving fraction (E21 [13]; 12.3 nM) was 0.974 and the surviving fraction (E21 [13]; 37 nM) was 1.12. For the same compound, the surviving fraction (E21 [13]; 111.1 nM) was 1.01, the surviving fraction (E21 [13]; 333.3 nM) was 1.11 and the surviving fraction (E21 [13]; 1000 nM) was 1.12. It also gave a surviving fraction (E21 [13]; 3000 nM) of 0.984, a surviving fraction (E31 [14]; 4.1 nM) of 1.02 and a surviving fraction (E31 [14]; 12.3 nM) of 0.878. For the same compound, the surviving fraction (E31 [14]; 37 nM) was 0.945, the surviving fraction (E31 [14]; 111.1 nM) was 0.874 and the surviving fraction (E31 [14]; 333.3 nM) was 0.886. It also gave a surviving fraction (E31 [14]; 1000 nM) of 0.857 and a surviving fraction (E31 [14]; 3000 nM) of 0.912.

Source: the supplement of paper PMC13207355
